Results: patent publication US6689817B1, “Process for preparing guaifenesin tannate” (Jame Fine Chemicals, Inc., priority 2001, dated 2004)
Like-named read-outs stand apart in the source and are kept apart here.

Legend:
[1] = background statement, cited from earlier work; for solubility in alcohols: alcohols such as methanol, ethanol, isopropanol
[2] = Solubility in water and organic solvents (descriptive)
[3] = Methylene chloride solubility test of milled guaifenesin tannate powders (Example 4); assay type: physicochemical
Method: Two gram samples of finely milled guaifenesin tannate powders were taken from each of the products prepared in Examples 1-3. Each sample was mixed with 110 g of methylene chloride and was stirred for 10 minutes at ambient temperature. Each mixture was then filtered. The insoluble material was dried and weighed and the filtrate was evaporated to dryness and the residue was weighed The results were as follows: […]

Row | solubility in alcohols [2] | solubility in methylene chloride [2] | solubility in toluene [2] | solubility in water [2] | Insoluble Ppt. [3] [g] | Soluble Ppt. [3] [mg] | Compound | solubility in alcohols [1] | solubility in water [1] | other results
1 | soluble | soluble | sparingly soluble | soluble |  |  | COc1ccccc1OCC(O)CO (centres unmarked) [guaifenesin, 3-(2-methoxyphenoxy)-1,2-propanediol] | readily soluble | about 5 wt. % | 
2 |  |  |  |  |  |  | guaifenesin tannate [Example 1] |  |  | Insoluble Ppt. ([3]; 2 g sample mixed with 110 g methylene chloride, stirred 10 minutes at ambient temperature, filtered, insoluble material dried and weighed): 1.94 g; Soluble Ppt. ([3]; 2 g sample mixed with 110 g methylene chloride, stirred 10 minutes at ambient temperature, filtrate evaporated to dryness, residue weighed): <8 mg
3 |  |  |  |  | 1.95 | <10 | guaifenesin tannate [Example 2] |  |  | 
4 |  |  |  |  | 1.945 | <7 | guaifenesin tannate [Example 3] |  |  | 
5 |  |  |  |  |  |  | guaifenesin tannate |  |  | solubility in methylene chloride (conclusion from Example 4) [3]: insoluble
6 | soluble | insoluble | insoluble | soluble |  |  | O=C(OC[C@H]1O[C@@H](OC(=O)c2cc(O)c(O)c(OC(=O)c3cc(O)c(O)c(O)c3)c2)[C@H](OC(=O)c2cc(O)c(O)c(OC(=O)c3cc(O)c(O)c(O)c3)c2)[C@@H](OC(=O)c2cc(O)c(O)c(OC(=O)c3cc(O)c(O)c(O)c3)c2)[C@@H]1OC(=O)c1cc(O)c(O)c(OC(=O)c2cc(O)c(O)c(O)c2)c1)c1cc(O)c(O)c(OC(=O)c2cc(O)c(O)c(O)c2)c1 [tannic acid] | highly soluble | highly soluble | solubility in chloroform ([2]; chloroform): insoluble
